# Measured values as given in the supplement of paper PMC10307832.
# Legend:
# Experiment in all cases: relative viability (nuclei count vs DMSO), 5 days (fraction); higher = more cells survive
# AZ505 + Lapatinib = compound: C1CCC(CC1)N(CCNCCC2=C3C(=C(C=C2)O)NC(=O)CO3)C(=O)CCNCCC4=CC(=C(C=C4)Cl)Cl [AZ505] + CS(=O)(=O)CCNCc1ccc(-c2ccc3ncnc(Nc4ccc(OCc5cccc(F)c5)c(Cl)c4)c3c2)o1 [Lapatinib] (partner 2 µM)
# Outline: (§1)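 Lung cancer cell lines were pin-tool dosed in 1536-well plates on the day after seeding, with either a lone drug or a fixed anchor-drug dose plus five library-drug doses (not always all listed) in √10 steps. Nuclei were counted on 4× images after 5 days. Relative viability is the ratio of treated-well to vehicle-well nuclei counts, with each value a median of duplicate plates.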
# AZ505 + Pictilisib = compound: C1CCC(CC1)N(CCNCCC2=C3C(=C(C=C2)O)NC(=O)CO3)C(=O)CCNCCC4=CC(=C(C=C4)Cl)Cl [AZ505] + CS(=O)(=O)N1CCN(Cc2cc3nc(-c4cccc5[nH]ncc45)nc(N4CCOCC4)c3s2)CC1 [Pictilisib] (partner 1 µM)
# Outline: as §1
# Dactolisib + Lapatinib = compound: Cn1c(=O)n(-c2ccc(C(C)(C)C#N)cc2)c2c3cc(-c4cnc5ccccc5c4)ccc3ncc21 [Dactolisib] + CS(=O)(=O)CCNCc1ccc(-c2ccc3ncnc(Nc4ccc(OCc5cccc(F)c5)c(Cl)c4)c3c2)o1 [Lapatinib] (partner 2 µM)
# Outline: as §1
# Dactolisib + Alpelisib = compound: Cn1c(=O)n(-c2ccc(C(C)(C)C#N)cc2)c2c3cc(-c4cnc5ccccc5c4)ccc3ncc21 [Dactolisib] + Cc1nc(NC(=O)N2CCC[C@H]2C(N)=O)sc1-c1ccnc(C(C)(C)C(F)(F)F)c1 [Alpelisib] (partner 2 µM)
# Outline: as §1
Cell Line,relative viability (AZ505 + Lapatinib; first compound 0.08 µM),relative viability (AZ505 + Lapatinib; first compound 0.253 µM),relative viability (AZ505 + Lapatinib; first compound 0.8 µM),relative viability (AZ505 + Lapatinib; first compound 2.53 µM),relative viability (AZ505 + Lapatinib; first compound 8 µM),relative viability (AZ505 + Pictilisib; first compound 0.08 µM),relative viability (AZ505 + Pictilisib; first compound 0.253 µM),relative viability (AZ505 + Pictilisib; first compound 0.8 µM),relative viability (AZ505 + Pictilisib; first compound 2.53 µM),relative viability (AZ505 + Pictilisib; first compound 8 µM),relative viability (Dactolisib + Lapatinib; first compound 0.002 µM),relative viability (Dactolisib + Lapatinib; first compound 0.006325 µM),relative viability (Dactolisib + Lapatinib; first compound 0.02 µM),relative viability (Dactolisib + Lapatinib; first compound 0.06325 µM),relative viability (Dactolisib + Lapatinib; first compound 0.2 µM),relative viability (Dactolisib + Alpelisib; first compound 0.002 µM),relative viability (Dactolisib + Alpelisib; first compound 0.006325 µM),relative viability (Dactolisib + Alpelisib; first compound 0.02 µM),relative viability (Dactolisib + Alpelisib; first compound 0.06325 µM),relative viability (Dactolisib + Alpelisib; first compound 0.2 µM)
EKVX,0.225,0.184,0.175,0.185,0.214,0.388,0.466,0.425,0.446,0.501,0.242,0.189,0.212,0.164,0.129,0.937,0.878,0.759,0.463,0.369
NCI-H2087,0.856,1.01,0.983,1.31,0.958,0.679,0.703,0.797,0.738,0.828,1.21,1.16,1.23,0.855,0.563,1.17,0.994,0.805,0.574,0.668
LK-2,0.777,0.837,1,1.05,1.03,0.562,0.706,0.59,0.597,0.604,0.804,0.831,0.807,0.474,0.235,0.934,1.03,0.793,0.526,0.416
NCI-H1437,0.765,0.729,0.757,0.738,0.831,0.46,0.424,0.599,0.415,0.404,0.797,0.835,0.807,0.517,0.234,1,0.991,0.918,0.836,0.81
COR-L23,0.873,0.987,0.878,0.82,0.74,0.546,0.741,0.486,0.686,0.535,1.39,0.864,0.765,0.299,0.295,0.8,0.646,0.419,0.199,0.149
ABC-1,–,1.1,1.11,1.12,1.23,0.711,0.618,0.759,0.662,0.57,1.18,1.04,0.982,0.808,0.707,1.2,1.01,0.816,0.571,0.431
NCI-H838,0.941,0.8,0.893,0.894,0.903,0.342,0.404,0.493,0.344,0.411,0.983,0.717,0.463,0.249,0.224,0.926,0.704,0.699,0.287,0.283
A549,0.916,0.931,0.966,0.929,0.955,0.461,0.569,0.519,0.585,0.59,1.07,0.769,0.674,0.224,0.145,0.966,0.715,0.614,0.146,0.083
A-427,1.1,1.07,0.961,1.03,0.998,0.693,0.514,0.566,0.726,0.741,1.06,1.04,0.928,0.883,0.776,1.16,1.01,1.03,0.733,0.578
NCI-H1792,0.822,0.846,0.861,0.852,0.99,0.301,0.262,0.288,0.25,0.323,1.05,0.943,0.859,0.792,0.293,0.783,0.671,0.549,0.165,0.125
LCLC-97TM1,1.03,0.948,1.28,1.06,1.3,0.233,0.171,0.273,0.144,0.15,0.926,0.558,0.842,0.269,0.317,0.304,0.218,0.186,0.134,0.151
NCI-H1703,1,1.26,1.03,1.2,1.28,0.242,0.235,0.231,0.256,0.25,0.688,0.796,0.716,0.379,0.314,0.205,0.329,0.34,0.267,0.216
LCLC-103H,–,–,–,–,–,0.627,0.532,0.555,0.657,0.6,–,–,–,–,–,1.01,0.943,0.95,0.673,0.539
ChaGo-K-1,–,–,–,–,–,0.824,0.58,0.691,0.819,0.901,–,–,–,–,–,–,–,–,–,–
NCI-H441,–,–,–,–,–,0.427,0.548,0.458,0.546,0.521,–,–,–,–,–,1.05,0.74,0.685,0.429,0.271
